This is an account of results in patent US12390441B2, “Immunomodulating o-het/aryl azalides” (Zoetis Services LLC, priority 2020, dated 2025).

Where only a bound is given, the exact number is not on record here.

Test in all cases: Whole blood assay, LPS stimulation, MSD cytokine detection
The subject of experiment [1] is TNF-α. Type of experiment: cell-based. The following applies: fresh whole bovine blood. The protocol:
(§1) Compounds of the invention were evaluated against a positive control for their ability to inhibit LPS-induced IL-1p and TNF-α as an overall evaluation of relative potency and modulation of target pathways.
(§2) In the bovine whole blood in vitro screening assay the inhibition of TNFα as induced by stimulation by lipopolysaccharide (LPS) and as measured by half the maximal inhibitory concentration (IC50) is recognized as the primary biomarker of immunomodulation potency upon pretreatment with the compounds of the invention. IL-1β is a mediator of the inflammation response and is involved in a number of cellular activities including proliferation, differentiation and apoptosis. IL-1β is also released upon cellular stress or cytotoxicity or upon TLR stimulation. In the bovine whole blood assay the stimulation of IL-1β release upon increasing concentration of test compound is seen as a potential cellular toxicity signal as induced by the test compound. In order to estimate a therapeutic index from the in vitro assay a differential between the TNFα IC50 (immunomodulation potency) versus the perceived cellular toxicity concentration (IL-1β release or overstimulation) was utilized. […] As the in vitro assay index approaches 1 it is proposed that the balance between immunomodulation and cytotoxicity would be too narrow in order to achieve an efficacious dose in vivo.

Experiment [2] relates to IL-6. Type of experiment: cell-based. The following applies: fresh whole bovine blood.
Experiment [3] relates to IL-1β. It counts as cell-based, bovine. The following applies: fresh whole bovine blood, LPS stimulation; drug concentration giving overstimulation (OS) of IL-1β. The protocol:
as §1, §2

For orientation: IC50 means the concentration at which inhibition is half-maximal. The low end stands for greater potency, the high end for weaker potency. For the compound `CC[C@H]1OC(=O)[C@H](C)[C@@H](O)[C@H](C)[C@@H](O[C@@H]2O[C@H](C)C[C@H](N(C)C(=O)N(C)c3ccccc3)[C@H]2Oc2ccc3ncccc3c2)[C@](C)(O)C[C@@H](C)CN(C)[C@H](C)[C@@H](O)[C@]1(C)O` [Example C-35], the IC50 in experiment [1] came to 12 µM; in experiment [2], 18 µM. Besides, the “IL-1ß OS of LPS” value in experiment [3] was over 250 µM.

On to `CC[C@H]1OC(=O)[C@H](C)[C@@H](O[C@H]2C[C@@](C)(OC)[C@](O)(CNC3CC3)[C@H](C)O2)[C@H](C)[C@@H](O[C@@H]2O[C@H](C)C[C@H](NC)[C@H]2Oc2ccccc2)[C@](C)(O)C[C@@H](C)CN[C@H](C)[C@@H](O)[C@]1(C)O` [Example E-125], for which the IC50 amounted to 5 µM in experiment [1] and 8 µM in experiment [2]. Also, in experiment [3], the “IL-1ß OS of LPS” value was 16 µM.

With `CC[C@H]1OC(=O)[C@H](C)[C@@H](O[C@H]2C[C@@](C)(OC)[C@](O)(CNCCN(C)C)[C@H](C)O2)[C@H](C)[C@@H](O[C@@H]2O[C@H](C)C[C@H](N(C)C)[C@H]2Oc2ccccc2)[C@](C)(O)C[C@@H](C)CN[C@H](C)[C@@H](O)[C@]1(C)O` [Example E-144], the figures for the IC50 in experiment [1] and in experiment [2] were 8 µM and 87 µM, respectively. The “IL-1ß OS of LPS” value in experiment [3] came to 40 µM.

In the case of `CC[C@H]1OC(=O)[C@H](C)[C@@H](O[C@H]2C[C@@](C)(OC)[C@](O)(CNC3CCOCC3)[C@H](C)O2)[C@H](C)[C@@H](O[C@@H]2O[C@H](C)C[C@H](N(C)C)[C@H]2Oc2ccccc2)[C@](C)(O)C[C@@H](C)CN[C@H](C)[C@@H](O)[C@]1(C)O` [Example E-120], the IC50 amounted to 8 µM in experiment [1] and 11 µM in experiment [2]. Further, the “IL-1ß OS of LPS” value in experiment [3] came out at 16 µM.

`CC[C@H]1OC(=O)[C@H](C)[C@@H](O[C@H]2C[C@@](C)(OC)[C@](O)(CNC3CCC3)[C@H](C)O2)[C@H](C)[C@@H](O[C@@H]2O[C@H](C)C[C@H](N(C)C)[C@H]2Oc2ccccc2)[C@](C)(O)C[C@@H](C)CN[C@H](C)[C@@H](O)[C@]1(C)O` [Example E-141]: the concentration for half-maximal inhibition (IC50) came to 7 µM in experiment [1] and 19 µM in experiment [2]. Besides, the “IL-1ß OS of LPS” value in experiment [3] turned out to be 16 µM.

`CC[C@H]1OC(=O)[C@H](C)[C@@H](O[C@H]2C[C@@](C)(OC)[C@](O)(CNCCN(C)C)[C@H](C)O2)[C@H](C)[C@@H](O[C@@H]2O[C@H](C)C[C@H](N(C)C)[C@H]2Oc2ccc(F)cc2)[C@](C)(O)C[C@@H](C)CN[C@H](C)[C@@H](O)[C@]1(C)O` [Example E-114]: the IC50 amounted to 13 µM in experiment [1] and 52 µM in experiment [2]. In addition, the “IL-1ß OS of LPS” value in experiment [3] turned out to be 40 µM.

On to `CC[C@H]1OC(=O)[C@H](C)[C@@H](O[C@H]2C[C@@](C)(OC)[C@](O)(CN(C)CCN(C)C)[C@H](C)O2)[C@H](C)[C@@H](O[C@@H]2O[C@H](C)C[C@H](NC)[C@H]2Oc2ccccc2)[C@](C)(O)C[C@@H](C)CN[C@H](C)[C@@H](O)[C@]1(C)O` [Example E-128], for which the IC50 in experiment [1] is 100 µM; in experiment [2], 147 µM. Besides, in experiment [3], the “IL-1ß OS of LPS” value was 100 µM.

In the case of `CCCNC[C@]1(O)[C@H](C)O[C@@H](O[C@H]2[C@H](C)[C@@H](O[C@@H]3O[C@H](C)C[C@H](NC)[C@H]3Oc3ccccc3)[C@](C)(O)C[C@@H](C)CN(CCC)[C@H](C)[C@@H](O)[C@](C)(O)[C@@H](CC)OC(=O)[C@@H]2C)C[C@@]1(C)OC` [Example E-157], the IC50 in experiment [1] (Bos taurus) is 9 µM; in experiment [2] (Bos taurus), 10 µM. Also, the “IL-1ß OS of LPS” value in experiment [3] stood at 16 µM.

`CCCNC[C@]1(O)[C@H](C)O[C@@H](O[C@H]2[C@H](C)[C@@H](O[C@@H]3O[C@H](C)C[C@H](N(CC)CC)[C@H]3Oc3ccccc3)[C@](C)(O)C[C@@H](C)CN[C@H](C)[C@@H](O)[C@](C)(O)[C@@H](CC)OC(=O)[C@@H]2C)C[C@@]1(C)OC` [Example E-156]: the results for the IC50 in experiment [1] and in experiment [2] were 8 µM and 10 µM, respectively. Besides, in experiment [3], the “IL-1ß OS of LPS” value is 16 µM.

As to `CC[C@H]1OC(=O)[C@H](C)[C@@H](O[C@H]2C[C@@](C)(OC)[C@@H](O)[C@H](C)O2)[C@H](C)[C@@H](O[C@@H]2O[C@H](C)C[C@H](NC)[C@H]2Oc2cnc(Cl)cc2C)[C@](C)(O)C[C@@H](C)CN(C)[C@H](C)[C@@H](O)[C@]1(C)O` [Example A-29], the half-inhibitory concentration (IC50) in experiment [1] came out at 7 µM; in experiment [2], 9 µM. For the same compound, the “IL-1ß OS of LPS” value in experiment [3] was found to be 10 µM.

For the compound `CC[C@H]1OC(=O)[C@H](C)[C@@H](O)[C@H](C)[C@@H](O[C@@H]2O[C@H](C)C[C@H](N(C)C(=O)N3CCOc4ccccc43)[C@H]2Oc2ccccc2)[C@](C)(O)C[C@@H](C)CN[C@H](C)[C@@H](O)[C@]1(C)O` [Example D-3], the results for the IC50 in experiment [1] and in experiment [2] were 20 µM and 50 µM, respectively. Also, in experiment [3], the “IL-1ß OS of LPS” value is 16 µM.

With `CC[C@H]1OC(=O)[C@H](C)[C@@H](O)[C@H](C)[C@@H](O[C@@H]2O[C@H](C)C[C@H](N(C)C(=O)N(C)c3ncccn3)[C@H]2Oc2ccccc2)[C@](C)(O)C[C@@H](C)CN(C)[C@H](C)[C@@H](O)[C@]1(C)O` [Example C-17], the half-maximal inhibitory concentration (IC50) in experiment [1] is 38 µM; in experiment [2] it was 63 µM. Besides, the “IL-1ß OS of LPS” value in experiment [3] turned out to be 44 µM.

Turning to `CC[C@H]1OC(=O)[C@H](C)[C@@H](O)[C@H](C)[C@@H](O[C@@H]2O[C@H](C)C[C@H](N(C)C(=O)N(C)C3CCC3)[C@H]2Oc2ccccc2)[C@](C)(O)C[C@@H](C)CN[C@H](C)[C@@H](O)[C@]1(C)O` [Example C-21], the figures for the IC50 in experiment [1] and in experiment [2] were 28 µM and 18 µM, respectively. For the same compound, in experiment [3], the “IL-1ß OS of LPS” value worked out at 8 µM.

`CCCNC[C@]1(O)[C@H](C)O[C@@H](O[C@H]2[C@H](C)[C@@H](O[C@@H]3O[C@H](C)C[C@H](NC)[C@H]3Oc3ccc(C(N)=O)cc3)[C@](C)(O)C[C@@H](C)CN[C@H](C)[C@@H](O)[C@](C)(O)[C@@H](CC)OC(=O)[C@@H]2C)C[C@@]1(C)OC` [Example E-110]: the 50% inhibitory concentration (IC50) in experiment [1] stood at 125 µM; in experiment [2], 175 µM. The “IL-1ß OS of LPS” value in experiment [3] is over 500 µM.

Turning to `CC[C@H]1OC(=O)[C@H](C)[C@@H](O[C@H]2C[C@@](C)(OC)[C@](O)(CN(C)CCN(C)C)[C@H](C)O2)[C@H](C)[C@@H](O[C@@H]2O[C@H](C)C[C@H](N(C)C)[C@H]2Oc2ccccc2)[C@](C)(O)C[C@@H](C)CN[C@H](C)[C@@H](O)[C@]1(C)O` [Example E-143], the IC50 in experiment [1] worked out at 34 µM; in experiment [2], 86 µM. In addition, the “IL-1ß OS of LPS” value in experiment [3] turned out to be 40 µM.

`CCCNC[C@]1(O)[C@H](C)O[C@@H](O[C@H]2[C@H](C)[C@@H](O[C@@H]3O[C@H](C)C[C@H](NC)[C@H]3Oc3ccc(F)cc3)[C@](C)(O)C[C@@H](C)CN(C)[C@H](C)[C@@H](O)[C@](C)(O)[C@@H](CC)OC(=O)[C@@H]2C)C[C@@]1(C)OC` [Example E-153]: the concentration for half-maximal inhibition (IC50) in experiment [1] amounted to 21 µM; in experiment [2], 18 µM. Besides, the “IL-1ß OS of LPS” value in experiment [3] amounted to 16 µM.

For the compound `CC[C@H]1OC(=O)[C@H](C)[C@@H](O)[C@H](C)[C@@H](O[C@@H]2O[C@H](C)C[C@H](N(C)C(=O)N3CCOc4ccccc43)[C@H]2Oc2ccccc2)[C@](C)(O)C[C@@H](C)CN(C)[C@H](C)[C@@H](O)[C@]1(C)O` [Example D-2], the results for the 50% inhibitory concentration (IC50) in experiment [1] and in experiment [2] were 40 µM and 148 µM, respectively. Besides, the “IL-1ß OS of LPS” value in experiment [3] came out at 16 µM.

On to `CC[C@H]1OC(=O)[C@H](C)[C@@H](O[C@H]2C[C@@](C)(OC)[C@](O)(CNn3ccnc3)[C@H](C)O2)[C@H](C)[C@@H](O[C@@H]2O[C@H](C)C[C@H](N(C)C)[C@H]2Oc2ccccc2)[C@](C)(O)C[C@@H](C)CN[C@H](C)[C@@H](O)[C@]1(C)O` [Example E-40], for which the IC50 came out at 11 µM in experiment [1] and 55 µM in experiment [2]. In experiment [3], the “IL-1ß OS of LPS” value is 40 µM.

For the compound `CC[C@H]1OC(=O)[C@H](C)[C@@H](O[C@H]2C[C@@](C)(OC)[C@](O)(CNCCCOC)[C@H](C)O2)[C@H](C)[C@@H](O[C@@H]2O[C@H](C)C[C@H](N(C)C)[C@H]2Oc2ccccc2)[C@](C)(O)C[C@@H](C)CN[C@H](C)[C@@H](O)[C@]1(C)O` [Example E-146], the results for the half-inhibitory concentration (IC50) in experiment [1] and in experiment [2] were 12 µM and 45 µM, respectively. Also, in experiment [3], the “IL-1ß OS of LPS” value was 40 µM.

With `CC[C@H]1OC(=O)[C@H](C)[C@@H](O)[C@H](C)[C@@H](O[C@@H]2O[C@H](C)C[C@H](N(C)C(=O)N(C)c3ccc(C#N)cc3)[C@H]2Oc2ccccc2Cl)[C@](C)(O)C[C@@H](C)CN[C@H](C)[C@@H](O)[C@]1(C)O` [Example C-43], the IC50 in experiment [1] worked out at 21 µM; in experiment [2], 32 µM. The “IL-1ß OS of LPS” value in experiment [3] amounted to 16 µM.

As to `CC[C@H]1OC(=O)[C@H](C)[C@@H](O)[C@H](C)[C@@H](O[C@@H]2O[C@H](C)C[C@H](N(C)C(=O)N(C)c3ncccn3)[C@H]2Oc2ccccc2)[C@](C)(O)C[C@@H](C)CN(C)[C@H](C)[C@@H](O)[C@]1(C)O` [Example C-22], the half-inhibitory concentration (IC50) came to 94 µM in experiment [1] and 151 µM in experiment [2]. In experiment [3], the “IL-1ß OS of LPS” value came out at 100 µM.

On to `CCCNC[C@]1(O)[C@H](C)O[C@@H](O[C@H]2[C@H](C)[C@@H](O[C@@H]3O[C@H](C)C[C@H](NC)[C@H]3Oc3ccc(S(C)(=O)=O)cc3)[C@](C)(O)C[C@@H](C)CN[C@H](C)[C@@H](O)[C@](C)(O)[C@@H](CC)OC(=O)[C@@H]2C)C[C@@]1(C)OC` [Example E-80], for which the results for the IC50 in experiment [1] and in experiment [2] were 45 µM and 65 µM, respectively. Also, the “IL-1ß OS of LPS” value in experiment [3] is over 250 µM.
